In patent US4959374A, “Novel compounds” (Beecham Group P.L.C., priority 1989, dated 1990):

Tested on: CFLP female mice
Experiment: Reversal of Adrenaline-Exacerbated Glucose Intolerance in Mice
Type: in vivo
Settings: oral gavage, glucose 1 g/kg and adrenaline 300 μg/kg s.c., 0-120 minutes, versus water control, 24 h fasted mice
Protocol: (A) Reversal of Adrenaline-Exacerbated Glucose Intolerance in Mice
CFLP female mice of about 25 g were fasted for 24 hours prior to receiving water (10 ml/kg) or compounds by oral gavage. Thirty minutes later, glucose (1 g/kg) and adrenaline (300 μg/kg) were injected subcutaneously. Blood samples for glucose analysis were taken serially from the tail of each mouse at 0, 30, 60, 90 and 120 minutes after dosing glucose and the results are expressed below as the percentage reduction in the area under the blood glucose curve; the compound treated groups being compared to the water dosed control group. Six mice were used in each treatment group.

Compound | % Reduction in area under Blood Glucose Curve (10 μmol/kg) [%] | % Reduction in area under Blood Glucose Curve (20 μmol/kg) [%]
c1ccc2c(c1)CN(CC1=NCCN1)C2 [Example 1, 2-[2H-(1,3-Dihydroisoindole)methyl]-4,5-dihydroimidazole] | 40 | –
Clc1cccc2c1CN(CC1=NCCN1)C2 [Example 2, 2-[2H-(4-Chloro-1,3-dihydroisoindole)methyl]-4,5-dihydroimidazole] | 24 | –
Clc1ccc2c(c1)CN(CC1=NCCN1)C2 [Example 3, 2-[2H-(5-Chloro-1,3-dihydroisoindole)methyl]-4,5-dihydroimidazole] | – | 44
